Results: article PMC3856571 (Journal of the American Chemical Society, 2013)
Numbered stars: 1 amine (or outer) side, 2 acyl side, 3 side chain; on linkers, the order of the positions; unused ones are H or OH. Bridge positions count the residues as written; N and C are the ends. Square brackets hold non-standard residues; d marks the D form. Peptide text beside a SMILES is read from it. Trimesoyl = O=C(c1cc(C(=O)[*:2])cc(C(=O)[*:3])c1)[*:1]; Phg = N[C@H](C(=O)O)c1ccccc1; Nle = CCCC[C@H](N)C(=O)O; Dap = NC[C@H](N)C(=O)O

How the values were obtained:
[1] = biological target: bovine serum albumin (BSA) (Bos taurus, UniProt P02769); experiment: Fluorescence anisotropy specificity test, BSA; assay type: binding
Sequence of bovine serum albumin (BSA) (P02769 25-607): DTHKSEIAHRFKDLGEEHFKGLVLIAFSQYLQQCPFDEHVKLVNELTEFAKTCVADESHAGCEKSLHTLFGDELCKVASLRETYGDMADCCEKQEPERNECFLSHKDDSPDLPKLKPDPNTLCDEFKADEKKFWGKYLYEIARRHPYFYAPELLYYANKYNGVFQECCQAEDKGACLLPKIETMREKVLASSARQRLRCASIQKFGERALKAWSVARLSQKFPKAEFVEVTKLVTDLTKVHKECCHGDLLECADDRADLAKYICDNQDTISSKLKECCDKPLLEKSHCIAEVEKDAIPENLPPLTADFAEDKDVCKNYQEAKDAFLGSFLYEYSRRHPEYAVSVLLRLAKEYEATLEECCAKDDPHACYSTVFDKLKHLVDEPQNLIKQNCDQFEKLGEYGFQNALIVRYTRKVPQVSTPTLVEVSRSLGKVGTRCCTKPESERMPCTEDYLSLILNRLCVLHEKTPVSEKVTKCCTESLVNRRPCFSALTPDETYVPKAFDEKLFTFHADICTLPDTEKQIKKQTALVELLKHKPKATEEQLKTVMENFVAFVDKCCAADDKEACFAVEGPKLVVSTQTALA

[2] = biological target: glutathione-S-transferase-PLCγ SH2 domain fusion (GST-SH2); experiment: Fluorescence anisotropy specificity test, GST-SH2; assay type: binding; settings: FA, Fig. S4
[3] = biological target: T1, protein phosphatase PTP1B (Homo sapiens, UniProt P18031); experiment: Fluorescence anisotropy specificity test, PTP1B; assay type: binding; settings: FA
T1 sequence (P18031 1-435): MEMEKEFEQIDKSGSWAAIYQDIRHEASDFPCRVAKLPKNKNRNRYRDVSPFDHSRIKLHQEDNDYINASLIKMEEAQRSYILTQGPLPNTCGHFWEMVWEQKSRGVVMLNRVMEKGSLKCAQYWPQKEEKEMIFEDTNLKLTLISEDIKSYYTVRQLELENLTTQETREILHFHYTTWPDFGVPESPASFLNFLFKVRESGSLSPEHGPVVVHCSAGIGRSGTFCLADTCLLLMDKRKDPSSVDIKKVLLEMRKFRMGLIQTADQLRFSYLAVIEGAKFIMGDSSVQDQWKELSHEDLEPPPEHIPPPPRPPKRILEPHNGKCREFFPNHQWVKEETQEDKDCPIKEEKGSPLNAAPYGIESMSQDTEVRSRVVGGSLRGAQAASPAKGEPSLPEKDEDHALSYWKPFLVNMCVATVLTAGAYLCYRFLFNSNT

HIV capsid protein = HIV capsid protein (Human immunodeficiency virus type 1 group M subtype B, UniProt P04591); experiment: Fluorescence anisotropy specificity test, HIV capsid protein; assay type: binding; settings: FA
WEHI-13VAR fibroblasts = assay type: cell-based
GST-BRCT fusion protein = settings: FA
TNFα = TNFα (Homo sapiens, UniProt P01375); experiment: Fluorescence anisotropy binding of resynthesized FITC-labeled peptides; settings: resynthesized FITC-labeled peptide, FA analysis, Fig. S3
Sequence of TNFα (P01375 77-233 limits assumed): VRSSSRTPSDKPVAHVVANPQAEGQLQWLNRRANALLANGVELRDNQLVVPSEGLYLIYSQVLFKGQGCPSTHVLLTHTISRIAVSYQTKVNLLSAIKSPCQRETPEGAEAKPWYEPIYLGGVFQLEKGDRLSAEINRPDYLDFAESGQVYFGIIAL

C[C@H]1NC(=O)[C@H](Cc2ccc(O)cc2)NC(=O)[C@H](c2ccccc2)NC(=O)c2cc3cc(c2)C(=O)NC[C@@H](C(N)=O)NC(=O)[C@H](Cc2c[nH]cn2)NC(=O)[C@@H](CCCCN)NC(=O)CNC(=O)[C@@H](Cc2ccccc2)NC(=O)[C@H](Cc2ccc(O)cc2)NC(=O)[C@H](CCCCNC3=O)NC1=O [Anticachexin C1, bicyclo(Phg-Tyr-D-Ala-Lys-Tyr-D-Phe-Gly-D-Lys-His-Dap)] ([Phg]Y[dA]KY[dF]G[dK]H[Dap]-NH2; linker N-4-10 via Trimesoyl; C-terminus assumed)
Kd [1]: ~34 µM | KD for GST-SH2 [2]: not to any of the other proteins | binding to PTP1B [3]: not to any of the other proteins | binding to HIV capsid protein (HIV capsid protein): not to any of the other proteins | LD50 of TNFα in the presence of 50 μM Anticachexin C1 (WEHI-13VAR fibroblasts; TNFα 0-250 ng/mL, fixed 50 μM Anticachexin C1, MTT, Fig. S6): 1.8 ng/mL | protection of cells from TNFα-induced cell death (WEHI-13VAR fibroblasts; TNFα 0.04 ng/ml, actinomycin-D, peptide 0-25 μM, MTT, Fig. 4c): protected the cells from TNFα-induced cell death in a concentration-dependent manner | binding to GST-BRCT fusion protein (GST-BRCT fusion protein): not to any of the other proteins

TNFα
LD50 of TNFα in the absence of TNFα inhibitor (WEHI-13VAR fibroblasts; TNFα 0-250 ng/mL, MTT, Fig. S6): 0.46 ng/mL

CCCC[C@@H]1NC(=O)[C@@H]2CCCCNC(=O)c3cc(cc(c3)C(=O)N[C@@H](C)C(=O)N[C@H](Cc3ccccc3)C(=O)N[C@@H](Cc3c[nH]c4ccccc34)C(=O)N[C@H]([C@H](C)O)C(=O)N[C@@H](CCC(N)=O)C(=O)N2)C(=O)NC[C@@H](C(N)=O)NC(=O)[C@H](Cc2c[nH]cn2)NC(=O)[C@H](C)NC(=O)[C@@H](CC(C)C)NC1=O [Anticachexin C2, bicyclo(Ala-D-Phe-Trp-D-Thr-Gln-Lys-Nle-D-Leu-Ala-His-Dap)] (A[dF]W[dT]QK[Nle][dL]AH[Dap]-NH2; linker N-6-11 via Trimesoyl; C-terminus assumed)
Kd [1]: 7.4 µM | Kd ([2]; read-out: KD for GST-SH2): 1.5 µM

Bicyclo(Arg-Arg-Arg-Arg-Nal-Phe-Dap-Ser-D-Val-Pro-pTyr-His-Dap)
KD for TNFα (TNFα): no detectable binding
